We go through 28 molecules from US5294553A, “Method for the gravimetric determination of oil and grease” (priority 1993, dated 1994).

Read-outs that look alike come from different tables or passages of the source.

For data set [1] the following is noted: Table 1A, cited from earlier work.
The conditions of data set [2]: cited from earlier work.
The conditions of data set [3]: cited from earlier work. This is another data set of the same source.
The test system of another data set is Rat. Particulars: inhalation, Table 1B; cited from earlier work.
The conditions of data set [4]: cited from earlier work. This is another data set of the same source.
Data set [5] can be described thus: Amount of No. 6 Fuel dissolved. It counts as physicochemical. The conditions noted are these: for Amount of No. 6 Fuel Dissolved: Table 1B.

On to `c1ccccc1` [Benzene], for which the “Sol. in Water” value in data set [1] (in words) is on record as “sl. sol”. Moreover, the “ε, Dielectric Constant” value in data set [2] (Table 1A) was 2.27.
For `CCC(C)=O` [Butanone], in data set [1] (in words), the “Sol. in Water” value is on record as “sol”. In data set [2] (Table 1A), the “ε, Dielectric Constant” value was 18.5.
As for `S=C=S` [Carbon disulfide], the “ε, Dielectric Constant” value in data set [2] (Table 1A) is 2.64. Besides, the “Boil Pt.” value in data set [3] (Table 1A) was 46 °C.
For the molecule `ClC(Cl)(Cl)Cl` [Carbon tetrachloride], the “Sol. in Water” value in data set [1] (in words) is “Vsl. sol”. Further, the “ε, Dielectric Constant” value was 2.238 in data set [2] (-20° C., Table 1B) and 2.24 in data set [2] (Table 1A). Besides, the “Boil Pt.” value in data set [3] (Table 1A) and in data set [3] (Table 1B) was 76 °C each time. For the same molecule, the “LC50(ihl) -Rat” value in the data set with Rat is 4,000 ppm.
For the molecule `ClC(Cl)Cl` [Chloroform], the “Sol. in Water” value in data set [1] (in words) is reported as “Vsl. sol”. Also, the “ε, Dielectric Constant” value in data set [2] (-20° C., Table 1B) is listed as 4.80; in data set [2] (Table 1A) it was 4.81. For the same molecule, the “Boil Pt.” value in data set [3] (Table 1A) and in data set [3] (Table 1B) was 60 °C each time. The “LC50(ihl) -Rat” value in the data set on Rat is reported as 8,000 ppm.
Turning to `C1=CCCCC1` [Cyclohexene], the “Sol. in Water” value in data set [1] (in words) was “sl. sol”. In addition, the “ε, Dielectric Constant” value in data set [2] (Table 1A) is given as 2.20. Moreover, in data set [3] (Table 1A), the “Boil Pt.” value was 82 °C.
Take `C1CCCC1` [Cyclopentane]: the “Sol. in Water” value in data set [1] (in words) is given as “sl. sol”. Further, the “ε, Dielectric Constant” value in data set [2] (Table 1A) is recorded as 1.965. Also, the “Boil Pt.” value in data set [3] (Table 1A) is 49 °C.
For the molecule `C1=CCCC1` [Cyclopentene], the “ε, Dielectric Constant” value in data set [2] (Table 1A) was 2.20. Besides, the “Boil Pt.” value in data set [3] (Table 1A) is less than 49 °C.
Turning to `CCOC(C)=O` [Ethyl acetate], the “Hazards, Comments” value in data set [4] (Table 1A, code numbers) was 44. Besides, the “Sol. in Water” value in data set [1] (in words) is “sl. sol”. Also, the “ε, Dielectric Constant” value in data set [2] (-20° C., Table 1B) was 6.02; in data set [2] (Table 1A), 6.02. In addition, in data set [5], the “Amount of No. 6 Fuel Dissolved” value turned out to be 31.71%. Besides, the “Boil Pt.” value in data set [3] (Table 1A) and in data set [3] (Table 1B) was 77 °C throughout. The “LC50(ihl) -Rat” value in the data set with Rat was 1,600 ppm.
Regarding `C=CC(=O)OCC` [Ethyl acrylate], the “Boil Pt.” value in data set [3] (Table 1A) is 99 °C.
For `CCOCC` [Ethyl ether], the “Sol. in Water” value in data set [1] was 7.5 g/100 g. The “ε, Dielectric Constant” value in data set [2] (Table 1A) is on record as 4.34. Besides, in data set [3] (Table 1A), the “Boil Pt.” value is 34.6 °C.
Regarding `CCSC` [Ethyl methyl sulfide], in data set [1] (in words), the “Sol. in Water” value is “V. sl. sol”. In data set [2] (Table 1A), the “ε, Dielectric Constant” value is given as roughly 5.72. Besides, in data set [3] (Table 1A), the “Boil Pt.” value is 66 °C.
Take `CCSCC` [Ethyl sulfide]: the “Sol. in Water” value in data set [1] (in words) is “V. sl. sol”. Further, the “ε, Dielectric Constant” value in data set [2] (Table 1A) was 5.72. The “Boil Pt.” value in data set [3] (Table 1A) was 91 °C.
For `FC(F)(Cl)C(F)(Cl)Cl` [FREON ®, 1,1,2-trichloro-1,2,2-trifluoroethane], the “Sol. in Water” value in data set [1] (in words) is reported as “insol”. Also, the “Amount of No. 6 Fuel Dissolved” value in data set [5] is reported as 41.01%. Besides, the “Boil Pt.” value in data set [3] (Table 1A) and in data set [3] (Table 1B) was 50 °C each time.
In the case of `c1ccoc1` [Furan], the “Sol. in Water” value in data set [1] (in words) is listed as “sl. sol”. In data set [3] (Table 1A), the “Boil Pt.” value is 32 °C.
`C=CCCCCC` [Heptene-1]: in data set [1] (in words), the “Sol. in Water” value is listed as “ca. sl. sol”. In data set [2] (Table 1A), the “ε, Dielectric Constant” value is recorded as “ca. 2.05”. Also, in data set [3] (Table 1A), the “Boil Pt.” value is 93 °C.
In the case of `CCCCCC` [Hexane, n-hexane], in data set [4] (nervous system), the “adverse effects on absorption through the skin” value was “can be absorbed through the skin causing adverse effects to the nervous system, including a lack of feeling in the extremities and dizziness”. For the same molecule, in data set [1] (in words), the “Sol. in Water” value was “insol”. Further, the “ε, Dielectric Constant” value in data set [2] (Table 1A) was 1.89. The “solubility of No. 6 oil, in words” value in data set [5] (compared with hexane/methyl tertiary-butyl ether (80:20 v/v)) is “much less soluble in hexane”.
Turning to `C=CCCCC` [Hexene-1], the “Sol. in Water” value in data set [1] (in words) is listed as “ca. sl. sol”. Besides, the “ε, Dielectric Constant” value in data set [2] (Table 1A) is “ca. 2.05”. In addition, the “Boil Pt.” value in data set [3] (Table 1A) is 63 °C.
Take `ClCCl` [Methyl chloride]: in data set [3] (Table 1B), the “Boil Pt.” value is 40 °C.
`CC1CCCC1` [Methyl cyclopentane]: in data set [1] (in words), the “Sol. in Water” value is “V. sl. sol”. Further, the “Boil Pt.” value in data set [3] (Table 1A) is 72 °C.
On to `CSC` [Methyl sulfide], for which the “Sol. in Water” value in data set [1] (in words) is listed as “sl. sol”. In addition, the “ε, Dielectric Constant” value in data set [2] (-20° C., Table 1B) is 6.2; in data set [2] (Table 1A), 6.2. Further, the “Boil Pt.” value in data set [3] (Table 1A) and in data set [3] (Table 1B) was 37 °C in each case.
As for `COC(C)(C)C` [Methyl t-Butyl ether, methyl tertiary-butyl ether], in data set [1] (in words), the “Sol. in Water” value was “sl. sol”. The “ε, Dielectric Constant” value in data set [2] (-20° C., Table 1B) was 4.0; in data set [2] (Table 1A), “ca. 4.00”. Moreover, the “Amount of No. 6 Fuel Dissolved” value in data set [5] was determined as 99.74%. Moreover, the “Boil Pt.” value in data set [3] (Table 1A) and in data set [3] (Table 1B) was 55 °C in each case.
Turning to `ClCCl` [Methylene Chloride], in data set [2] (Table 1A), the “ε, Dielectric Constant” value is recorded as 9.08. The “Boil Pt.” value in data set [3] (Table 1A) is 40.2 °C.
In the case of `C=CCCC` [Pentene-1], the “Sol. in Water” value in data set [1] is 0.04%. The “ε, Dielectric Constant” value in data set [2] (Table 1A) is on record as 2.10. In data set [3] (Table 1A), the “Boil Pt.” value is 37 °C.
Turning to `c1ccsc1` [Thiophene], the “Sol. in Water” value in data set [1] (in words) is on record as “sl. sol”. For the same molecule, the “ε, Dielectric Constant” value in data set [2] (Table 1A) is given as 2.76. Moreover, the “Boil Pt.” value in data set [3] (Table 1A) is 83 °C.
As for `C=COC(C)=O` [Vinyl acetate], in data set [1] (in words), the “Sol. in Water” value is given as “sl. sol”. In addition, the “Boil Pt.” value in data set [3] (Table 1A) was 72 °C.
In the case of `C=COC=C` [Vinyl ether], in data set [1] (in words), the “Sol. in Water” value is “sl. sol”. The “ε, Dielectric Constant” value in data set [2] (Table 1A) is 3.94. In addition, the “Boil Pt.” value in data set [3] (Table 1A) is 28 °C.
As to `CO` [methyl alcohol], in data set [2] (alcohols), the “dielectric constant ε” value was 31.
